“Also recorded” adds a separate entry of the source.
molecular target: T1, human histamine H3 receptor (Homo sapiens, UniProt Q9Y5N1); assay: IP-One (HTRF IP1 accumulation) assay, H3 receptor co-expressed with chimeric Gqi5 in tsA201 cells; format: cell-based; details: antagonist mode, 20 µM compound, EC80 histamine
T1 construct: expressed in transfected cells; host or cells: tsA201 cells (transformed HEK-293), transient transfection
Protocol: Human tsA201 cells, a transformed HEK-293 cell line[70], were cultivated in Dulbecco’s Modified Eagle’s Medium (DMEM) with GlutaMAX, supplemented with 10% foetal bovine serum, penicillin 100 U/ml and streptomycin 100 µg/ml. Subconfluent cells grown in a 100 mm dish were transfected with 5 μg DNA using the Polyfect transfection reagent using the protocol of the manufacturer (Qiagen, West Sussex, UK), however with half of the recommended PolyFect volumes. Co-transfections (ratio 4:1) were performed with either constructs expressing the human histamine H3 receptor together with an empty vector and chimeric G protein Gqi5, respectively.
We applied the highly sensitive high-throughput homogeneous time-resolved fluorescence (HTRF) technology[71] for detection of IP-One generation using the Cisbio IP-One Tb assay kit, exactly as previously described. In brief, on the day of assay, ligand solutions were prepared in ligand buffer (Hank’s Balanced Salt Solution (HBSS) containing 20 mM HEPES pH 7.4, 1 mM CaCl2, 1 mM MgCl2, 40 mM LiCl)) and added to the wells of a 384-well OptiPlate (PerkinElmer, Waltham, USA) in triplicates. When testing for antagonist activity the ligand buffer was supplemented with an EC80 concentration of histamine, and we used a final compound concentration of 20 µM and 2 µM for the first (virtual hits) and second (analogues) screening, respectively. Cell suspensions were added and incubated with ligands for 1 hour, followed by the addition of detection solution (IP-One Tb conjugate & Lysis Buffer +2.5% anti-IP1 cryptate Tb conjugate +2.5% IP1-d2 conjugate. 38:1:1) and incubation in the dark for one hour at room temperature. The plate was read on an EnVision 2104 Multilabel Reader (PerkinElmer) by exciting the wells with light of 340 nm and measuring the emission at 615 nm and 665 nm. The fluorescence resonance energy transfer ratios (665 nm/615 nm) were converted to IP1 concentrations by interpolating values from an IP1 standard curve generated from an IP1 calibration stock, provided by the manufacturer (Cisbio).
Data were analysed using GraphPad Prism 6 (GraphPad Software, San Diego, CA, USA). Concentration-response curves were fitted by nonlinear regression to equation (1):1 R=Rmax+Rmax−Rmin/1+10^(logIC50−X)∗nH where X is the logarithm of the concentration, R is the response, R max is the maximal response, R min is the minimal response, IC50 is the concentration giving half-maximum reduction of the response, and nH is the Hill coefficient, which describes the steepness of the curve. IP-One assay results are reported either as raw FRET in arbitrary units, as IP1 concentration (nM) or as fold over basal (normalized to the basal level of IP1 in ligand buffer [IP1]/[IP1]basal). The Z′-factors were calculated using equation (2):2 Z′=1−3σc++3σc−/|µc+−µc−|

T1 sequence (Q9Y5N1 whole entry): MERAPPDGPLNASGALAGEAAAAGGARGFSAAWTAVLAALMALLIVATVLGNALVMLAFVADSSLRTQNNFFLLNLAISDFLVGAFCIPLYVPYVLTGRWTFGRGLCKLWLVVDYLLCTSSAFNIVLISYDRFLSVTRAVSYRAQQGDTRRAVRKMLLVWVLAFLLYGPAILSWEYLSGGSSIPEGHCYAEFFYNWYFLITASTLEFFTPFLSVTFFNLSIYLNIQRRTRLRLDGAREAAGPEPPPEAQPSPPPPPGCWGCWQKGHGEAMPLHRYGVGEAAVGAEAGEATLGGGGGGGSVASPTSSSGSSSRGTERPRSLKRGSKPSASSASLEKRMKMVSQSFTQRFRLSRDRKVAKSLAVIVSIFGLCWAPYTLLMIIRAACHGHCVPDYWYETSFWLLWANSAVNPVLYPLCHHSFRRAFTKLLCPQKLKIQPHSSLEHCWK

| Structure (SMILES) | Result of first pharmacological assaying (pharmacophore screening hits) |
| --- | --- |
| Cc1ccc(CN2CCCN(C(=O)CCSCc3cn4ccccc4n3)CC2)cc1 [Compound 44] | seemingly active |
| CCN(Cc1nc2ccccc2[nH]1)CC1CCCN(CCc2cccc(OC)c2)C1 (centres unmarked) [Compound 9] | seemingly active |
| CCCCN1CN(CCCN2CCCCC2)Cn2c1nc1ccccc12 [Compound 35] | antagonist hits |
| Cc1ccc2c(c1)c1c3n2CCN(CC(O)CNCc2ccccc2)C3CCC1 (centres unmarked) [Compound 42] | antagonist hits |
| Cc1nccn1-c1ccc(CNCc2cccc(C#N)c2)cc1F [Compound 20] | borderline activity |
| Cc1nc(N2CCN(c3ncc[nH]c3=O)CC2)c2sccc2n1 [Compound 21] | antagonist hits |

same assay, conditions: antagonist mode, in the presence of EC80 of histamine

| Structure (SMILES) | IC50 [µM] | pIC50 ± SEM |
| --- | --- | --- |
| Cc1ccc2c(c1)c1c3n2CCN(CC(O)CN2CCN(C)CC2)C3CCC1 (centres unmarked) [Compound 75] | 121 | 3.92±0.18 |
| CCCCN1CN(CCCN(C)c2ccccc2)Cn2c1nc1ccccc12 [Compound 68] | 22 | 4.66±0.20 |
| CCCCN1CN(CCCN2CCCCC2)Cn2c1nc1ccccc12 [Compound 35] | 3.3 | 5.5 ± 0.27 |
| CCN1CCNC(=O)C1CC(=O)N1CCc2[nH]c3c(C)cccc3c2C1 (centres unmarked) [Compound 64] | 261 | 3.58±0.17 |
| Cc1ccc2c(c1)c1c3n2CCN(CC(O)CNCc2ccccc2)C3CCC1 (centres unmarked) [Compound 42] | 42.1 | 4.38±0.11 |
| Cc1nc(N2CCN(c3ncc[nH]c3=O)CC2)c2sccc2n1 [Compound 21] | 20.9 | 4.68±0.10 |

molecular target: H3 receptor; assay: not given; design: method as in ChEMBL [64]; details: known H3 ligand; ref ChEMBL [64]; cited from earlier work

| Structure (SMILES) | Affinity (pKi) of most similar ChEMBL ligand |
| --- | --- |
| COc1cccc(OCCN2CCC(N3CCCCC3)CC2)c1 [ChEMBL 460313] | 6.9 |
| OC1(c2ccccn2)CCCN(c2nnc(N3CCC(N4CCCCC4)CC3)s2)C1 (centres unmarked) [ChEMBL 2048591] | 7.3 |
| CN(C)CCCNc1c2c(nc3ccccc13)CCCCC2 [ChEMBL 65849] | 8.0 |
| CN1CCC(C(=O)c2cc3cc(Cl)ccc3[nH]2)CC1 [ChEMBL 186456] | 5.5 |
| CNCc1cc(C#CCCN2CCNC(=O)C2)ccc1Oc1ccc(SC)cc1 [ChEMBL 237514] | 6.1 |
| c1ccc2c(c1)nc1n(CCN3CCCCC3)cnn21 [ChEMBL 1923529] | 6.2 |

molecular target: mouse H3 receptor; assay: not given; details: Gqi5, Ca2+ release; cited from earlier work

| Structure (SMILES) | EC50 [µM] |
| --- | --- |
| NCCc1c[nH]cn1 [histamine] | 0.0218 |

molecular target: T2, human H3 receptor (Homo sapiens, UniProt Q9Y5N1); assay: [3H]N-α-methylhistamine radioligand competition binding assay; details: 0.3 nM [3H]N-α-methylhistamine; Cheng-Prusoff with Kd 0.15 nM
T2 construct: expressed in transfected cells; host or cells: HEK-293T cells, membranes
Protocol: HEK-239T cells were grown to 70% confluency in 150 mm cell culture dishes and transfected with 8 µg human H3 receptor using the Polyfect transfection reagent as previously described. After 48 hours, cells were washed from each cell culture dish with Dulbecco’s phosphate buffered saline and harvested using a cell scraper. The resulting cell suspension was then centrifuged and resuspended in 500 µL lysis buffer (50 mM Tris-HCl, pH 7.4). The cell lysate was centrifuged at 16,000 g for 20 minutes at 4 °C. The resultant membrane pellets were stored at −80 °C until use. Each pellet was resuspended in 500 µL binding buffer (50 mM Tris-HCl, 0.5 mM EDTA, pH 7.4), homogenized and centrifuged at 16,000 g for 15 minutes at 4 °C, and subsequently resuspended in 15 mL of binding buffer to a desired protein concentration of approximately 0.2 mg/mL as determined by the method of Bradford[73]. The membrane solution (30 µg protein per well) was incubated for 90 minutes in 250 µL of binding buffer, with or without compound, together with 0.3 nM [^3H]N-α-methylhistamine at room temperature. Non-specific binding was defined as the radioligand bound to membrane solution incubated with 10 µM histamine. The binding reaction was terminated by rapid filtration through Whatman GF/C unifilters (PerkinElmer), and washed four times with ice-cold wash buffer (50 mM Tris-HCl, 10 mM MgCl2, 0.1 mM EDTA, pH 7.4) using a 96-well Packard FilterMate cell harvester (PerkinElmer). Finally, Microscint 0 scintillation liquid (PerkinElmer) was added to the dried filters, and the radioactivity quantified in a Packard TopCount NXT microplate Scintillation Counter (PerkinElmer).
The binding data was fitted by nonlinear regression to equation (3):3 Y=Ymax+Ymax−Ymin/1+10^X−logIC50 where X is the logarithm of the concentration, Y is the specific binding, Y max is the maximal specific binding, Y min is the minimal specific binding, and IC50 is the concentration giving half-maximum reduction in specific binding.

T2 sequence (Q9Y5N1 whole entry): as above

| Structure (SMILES) | Ki [µM] |
| --- | --- |
| Cc1ccc2c(c1)c1c3n2CCN(CC(O)CN2CCN(C)CC2)C3CCC1 (centres unmarked) [Compound 75] | 4.82 |
| Cc1ccc(CN2CCCN(C(=O)CCSCc3cn4ccccc4n3)CC2)cc1 [Compound 44] | 2.82 |
| CCN(Cc1nc2ccccc2[nH]1)CC1CCCN(CCc2cccc(OC)c2)C1 (centres unmarked) [Compound 9] | 1.75 |
| CCCCN1CN(CCCN(C)c2ccccc2)Cn2c1nc1ccccc12 [Compound 68] | > 300 |
| CCCCN1CN(CCCN2CCCCC2)Cn2c1nc1ccccc12 [Compound 35] | 1.75 |
| CCN1CCNC(=O)C1CC(=O)N1CCc2[nH]c3c(C)cccc3c2C1 (centres unmarked) [Compound 64] | 86.7 |
| Cc1ccc2c(c1)c1c3n2CCN(CC(O)CNCc2ccccc2)C3CCC1 (centres unmarked) [Compound 42] | 14.8 |
| Cc1nccn1-c1ccc(CNCc2cccc(C#N)c2)cc1F [Compound 20] | 4.24 |
| Cc1nc(N2CCN(c3ncc[nH]c3=O)CC2)c2sccc2n1 [Compound 21] | > 50 |

same assay, conditions: 0.3 nM [3H]N-α-methylhistamine; ± SEM

| Structure (SMILES) | Affinity (pKi) |
| --- | --- |
| Cc1ccc2c(c1)c1c3n2CCN(CC(O)CN2CCN(C)CC2)C3CCC1 (centres unmarked) [Compound 75] | 5.32±0.04 |
| Cc1ccc(CN2CCCN(C(=O)CCSCc3cn4ccccc4n3)CC2)cc1 [Compound 44] | 5.55±0.06 |
| CCN(Cc1nc2ccccc2[nH]1)CC1CCCN(CCc2cccc(OC)c2)C1 (centres unmarked) [Compound 9] | 5.76±0.25 |
| CCCCN1CN(CCCN2CCCCC2)Cn2c1nc1ccccc12 [Compound 35] | 5.76 ± 0.05 |
| CCN1CCNC(=O)C1CC(=O)N1CCc2[nH]c3c(C)cccc3c2C1 (centres unmarked) [Compound 64] | 4.06±0.11 |
| Cc1ccc2c(c1)c1c3n2CCN(CC(O)CNCc2ccccc2)C3CCC1 (centres unmarked) [Compound 42] | 4.83±0.08 |
| Cc1nccn1-c1ccc(CNCc2cccc(C#N)c2)cc1F [Compound 20] | 5.37±0.12 |

same assay, conditions: 0.3 nM radioligand; NSB defined with 10 µM histamine

| Structure (SMILES) | Competition with [3H]N-α-methylhistamine binding (in words) |
| --- | --- |
| Cc1ccc(CN2CCCN(C(=O)CCSCc3cn4ccccc4n3)CC2)cc1 [Compound 44] | unable to outcompete radiolabeled ligand to NSB levels; also recorded: unable to lower the binding of [^3H]N-α-methylhistamine to non-specific binding levels |
| CCCCN1CN(CCCN(C)c2ccccc2)Cn2c1nc1ccccc12 [Compound 68] | little to no effect on radiolabeled ligand binding; also recorded: unable to compete with binding |
| Cc1ccc2c(c1)c1c3n2CCN(CC(O)CNCc2ccccc2)C3CCC1 (centres unmarked) [Compound 42] | unable to outcompete radiolabeled ligand to NSB levels; also recorded: unable to lower the binding of [^3H]N-α-methylhistamine to non-specific binding levels |
| Cc1nc(N2CCN(c3ncc[nH]c3=O)CC2)c2sccc2n1 [Compound 21] | little to no effect on radiolabeled ligand binding; also recorded: unable to compete with binding |

same assay, conditions: possibly due to compound breakdown

| Structure (SMILES) | Change of potency upon repeated experimentation |
| --- | --- |
| CCN(Cc1nc2ccccc2[nH]1)CC1CCCN(CCc2cccc(OC)c2)C1 (centres unmarked) [Compound 9] | continued decrease in potency observed upon repeated experimentation |
| Cc1nccn1-c1ccc(CNCc2cccc(C#N)c2)cc1F [Compound 20] | continued decrease in potency observed upon repeated experimentation |

Reference: PMC5500575, “Identification of Histamine H3 Receptor Ligands Using a New Crystal Structure Fragment-based Method” (Scientific Reports, 2017)
